Data as given in PubChem BioAssay (NCI).
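Five concentrations, 48 hours, 96-well plates. Definition used: TGI = concentration required for complete inhibition of growth.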

Key:
Test in all cases: NCI anticancer screen, dose series, 48 h
K-562 leukemia = system: K-562 leukemia
CAKI-1 renal = system: CAKI-1 renal
A549 NSCLC = system: A549 NSCLC
DMS 114 small cell lung = system: DMS 114 small cell lung
LXFL 529 NSCLC = system: LXFL 529 NSCLC
MOLT-4 leukemia = system: MOLT-4 leukemia
SF-295 CNS = system: SF-295 CNS
HT29 colon = system: HT29 colon
SK-MEL-5 melanoma = system: SK-MEL-5 melanoma
UACC-257 melanoma = system: UACC-257 melanoma
HL-60(TB) leukemia = system: HL-60(TB) leukemia
MALME-3M melanoma = system: MALME-3M melanoma
KM12 colon = system: KM12 colon
SNB-19 CNS = system: SNB-19 CNS
OVCAR-3 ovarian = system: OVCAR-3 ovarian
SF-539 CNS = system: SF-539 CNS
ACHN renal = system: ACHN renal
OVCAR-8 ovarian = system: OVCAR-8 ovarian
SK-MEL-2 melanoma = system: SK-MEL-2 melanoma
SW-620 colon = system: SW-620 colon
CCRF-CEM leukemia = system: CCRF-CEM leukemia
HCC-2998 colon = system: HCC-2998 colon
IGROV1 ovarian = system: IGROV1 ovarian
XF 498 CNS = system: XF 498 CNS
OVCAR-5 ovarian = system: OVCAR-5 ovarian
RXF 393 renal = system: RXF 393 renal
HOP-92 NSCLC = system: HOP-92 NSCLC
SNB-75 CNS = system: SNB-75 CNS
UO-31 renal = system: UO-31 renal
SN12C renal = system: SN12C renal
DMS 273 small cell lung = system: DMS 273 small cell lung
M14 melanoma = system: M14 melanoma
SF-268 CNS = system: SF-268 CNS
COLO 205 colon = system: COLO 205 colon
NCI-H460 lung = system: NCI-H460 lung
HCT-15 colon = system: HCT-15 colon
NCI-H226 lung = system: NCI-H226 lung
A498 renal = system: A498 renal
NCI-H522 lung = system: NCI-H522 lung
SK-OV-3 ovarian = system: SK-OV-3 ovarian
OVCAR-4 ovarian = system: OVCAR-4 ovarian
786-0 renal = system: 786-0 renal
SNB-78 CNS = system: SNB-78 CNS
DLD-1 colon = system: DLD-1 colon
KM20L2 colon = system: KM20L2 colon
HCT-116 colon = system: HCT-116 colon
TK-10 renal = system: TK-10 renal
HOP-62 NSCLC = system: HOP-62 NSCLC
NCI-H23 lung = system: NCI-H23 lung
M19-MEL melanoma = system: M19-MEL melanoma
RPMI-8226 leukemia = system: RPMI-8226 leukemia
UACC-62 melanoma = system: UACC-62 melanoma
HOP-18 NSCLC = system: HOP-18 NSCLC
EKVX NSCLC = system: EKVX NSCLC
SK-MEL-28 melanoma = system: SK-MEL-28 melanoma
U251 CNS = system: U251 CNS
LOX IMVI melanoma = system: LOX IMVI melanoma
SR leukemia = system: SR leukemia

CCCCCCCCCC1CC(=O)OC23CCCC(=O)C12O3 (centres undefined)
TGI (K-562 leukemia): > 100 µM
TGI (CAKI-1 renal): > 100 µM
TGI (A549 NSCLC): > 100 µM
TGI (DMS 114 small cell lung): > 100 µM
TGI (LXFL 529 NSCLC): > 100 µM
TGI (MOLT-4 leukemia): 71.4 µM
TGI (SF-295 CNS): > 100 µM
TGI (HT29 colon): > 100 µM
TGI (SK-MEL-5 melanoma): > 100 µM
TGI (UACC-257 melanoma): > 100 µM
TGI (HL-60(TB) leukemia): 69.2 µM
TGI (MALME-3M melanoma): > 100 µM
TGI (KM12 colon): > 100 µM
TGI (SNB-19 CNS): > 100 µM
TGI (OVCAR-3 ovarian): > 100 µM
TGI (SF-539 CNS): > 100 µM
TGI (ACHN renal): > 100 µM
TGI (OVCAR-8 ovarian): > 100 µM
TGI (SK-MEL-2 melanoma): > 100 µM
TGI (SW-620 colon): > 100 µM
TGI (CCRF-CEM leukemia): > 100 µM
TGI (HCC-2998 colon): > 100 µM
TGI (IGROV1 ovarian): > 100 µM
TGI (XF 498 CNS): > 100 µM
TGI (OVCAR-5 ovarian): > 100 µM
TGI (RXF 393 renal): > 100 µM
TGI (HOP-92 NSCLC): > 100 µM
TGI (SNB-75 CNS): > 100 µM
TGI (UO-31 renal): > 100 µM
TGI (SN12C renal): > 100 µM
TGI (DMS 273 small cell lung): > 100 µM
TGI (M14 melanoma): > 100 µM
TGI (SF-268 CNS): > 100 µM
TGI (COLO 205 colon): > 100 µM
TGI (NCI-H460 lung): > 100 µM
TGI (HCT-15 colon): > 100 µM
TGI (NCI-H226 lung): > 100 µM
TGI (A498 renal): > 100 µM
TGI (NCI-H522 lung): > 100 µM
TGI (SK-OV-3 ovarian): > 100 µM
TGI (OVCAR-4 ovarian): > 100 µM
TGI (786-0 renal): > 100 µM
TGI (SNB-78 CNS): > 100 µM
TGI (DLD-1 colon): > 100 µM
TGI (KM20L2 colon): > 100 µM
TGI (HCT-116 colon): > 100 µM
TGI (TK-10 renal): > 100 µM
TGI (HOP-62 NSCLC): > 100 µM
TGI (NCI-H23 lung): > 100 µM
TGI (M19-MEL melanoma): > 100 µM
TGI (RPMI-8226 leukemia): > 100 µM
TGI (UACC-62 melanoma): > 100 µM
TGI (HOP-18 NSCLC): > 100 µM
TGI (EKVX NSCLC): > 100 µM
TGI (SK-MEL-28 melanoma): > 100 µM
TGI (U251 CNS): > 100 µM
TGI (LOX IMVI melanoma): > 100 µM

N#Cc1c(-c2ccccc2)c(-c2ccccc2)cc2c(=O)c3ccc(Cl)cc3[nH]c12
TGI (A549 NSCLC): > 100 µM
TGI (LXFL 529 NSCLC): > 100 µM
TGI (MOLT-4 leukemia): > 100 µM
TGI (SF-295 CNS): > 100 µM
TGI (HT29 colon): > 100 µM
TGI (UACC-257 melanoma): > 100 µM
TGI (HL-60(TB) leukemia): > 100 µM
TGI (MALME-3M melanoma): > 100 µM
TGI (SNB-19 CNS): > 100 µM
TGI (OVCAR-3 ovarian): > 100 µM
TGI (SF-539 CNS): > 100 µM
TGI (SR leukemia): > 100 µM
TGI (ACHN renal): > 100 µM
TGI (OVCAR-8 ovarian): > 100 µM
TGI (SK-MEL-2 melanoma): > 100 µM
TGI (SW-620 colon): > 100 µM
TGI (CCRF-CEM leukemia): > 100 µM
TGI (HCC-2998 colon): > 100 µM
TGI (IGROV1 ovarian): > 100 µM
TGI (XF 498 CNS): > 100 µM
TGI (OVCAR-5 ovarian): > 100 µM
TGI (RXF 393 renal): > 100 µM
TGI (HOP-92 NSCLC): > 100 µM
TGI (SNB-75 CNS): > 100 µM
TGI (UO-31 renal): > 100 µM
TGI (SN12C renal): > 100 µM
TGI (DMS 273 small cell lung): > 100 µM
TGI (SF-268 CNS): > 100 µM
TGI (COLO 205 colon): > 100 µM
TGI (NCI-H460 lung): > 100 µM
TGI (HCT-15 colon): > 100 µM
TGI (NCI-H226 lung): > 100 µM
TGI (SK-OV-3 ovarian): > 100 µM
TGI (786-0 renal): > 100 µM
TGI (DLD-1 colon): > 100 µM
TGI (KM20L2 colon): > 100 µM
TGI (HCT-116 colon): > 100 µM
TGI (TK-10 renal): > 100 µM
TGI (HOP-62 NSCLC): > 100 µM
TGI (NCI-H23 lung): > 100 µM
TGI (M19-MEL melanoma): > 100 µM
TGI (RPMI-8226 leukemia): > 100 µM
TGI (UACC-62 melanoma): > 100 µM
TGI (HOP-18 NSCLC): > 100 µM
TGI (EKVX NSCLC): > 100 µM
TGI (SK-MEL-28 melanoma): > 100 µM
TGI (U251 CNS): > 100 µM
